The values that follow come from PMC12696353, “Structural insights into endogenous agonist selectivity of aminergic receptors from the octopamine β2 receptor” (PNAS Nexus, 2025).

Substitutions are numbered along the chain they refer to. Where two headings read alike, the source gives them in different places.

Type in all cases: cell-based
The target of test [1] is is-octβ2R V111^3.33A mutant (Ixodes scapularis, UniProt A0ACM8E5E8, V111A). Briefly: TGFα shedding assay, mutant V111^3.33A. As for the experimental part:
(§1) The TGFα shedding assay was performed as previously described ([28]). […] The cells were transfected using lipofectamine 2000 with plasmids encoding alkaline phosphatase–tagged TGFα (AP-TGFα) (2.5 ng/mL), is-octβ2Rs (1 ng/mL), and Gαq/s (0.5 ng/mL). After 24 h, the cells were washed with phosphate-buffered saline and resuspended in Hank's balanced salt solution (HBSS) (supplemented with 5 mM HEPES [pH 7.4]). The cells (90 μL/well) were plated in a 96-well plate and incubated with 10 μL of HBSS solution containing various concentrations of compounds for 1 h at 37 °C. Following centrifugation (200 × g, 2 min), 80 μL of the supernatant was transferred to a separate 96-well plate. Subsequently, 80 µL of 2× para-nitrophenyl phosphate (pNPP) buffer (containing 10 mM pNPP in 40 mM Tris–HCl [pH 9.5], 40 mM NaCl, and 10 mM MgCl2) was added to both the supernatant and cell-containing plates. The optical density at 405 nm of both plates was measured before and after a 1 h incubation at room temperature using a microplate reader (SpectraMax iD3, Molecular Devices, San Jose, CA, United States). AP-TGFα release was calculated using the following formulas:
(§2) ΔOD405=OD450(1h)−OD405(0h)AP−TGFαinsupernatant(%)=(ΔOD405Sup/[ΔOD450Sup+ΔOD405Cell])×125AP−TGFαrelease(%)=AP−TGFαinsupernatantunderastimulatedcondition(%)−AP−TGFαinsupernatantunderavehicle−treatedcondition […]

The target of test [2] is I. scapularis octβ2R (is-octβ2R) (Ixodes scapularis, UniProt A0ACM8E5E8). Briefly: cell-based. The conditions noted are these: for Emax: AP-TGFα release. How it is done: as §1
(§3) ΔOD405=OD450(1h)−OD405(0h)AP−TGFαinsupernatant(%)=(ΔOD405Sup/[ΔOD450Sup+ΔOD405Cell])×125AP−TGFαrelease(%)=AP−TGFαinsupernatantunderastimulatedcondition(%)−AP−TGFαinsupernatantunderavehicle−treatedcondition
(§4) where OD405 (0 h) and […] represent the OD405 before and after a 1 h incubation, respectively, and OD405Sup and OD405Cell represent the OD405 of supernatant and cell plates, respectively. For all pharmacological analyses, nonlinear regression curve fitting was performed with a 3-parameter sigmoid model (Hill coefficient = 1) using Prism 8 (GraphPad Software, La Jolla, CA, United States).

Test [3] deals with is-octβ2R S114^3.36A mutant (Ixodes scapularis, UniProt A0ACM8E5E8, S114A). As to the kind of experiment: TGFα shedding assay, mutant S114^3.36A. Particulars: Table S6. As for the experimental part: as §1, §2
Test [4] concerns the target T1, is-octβ2R N87^2.61S mutant (Ixodes scapularis, UniProt A0ACM8E5E8, N87S).
T1 sequence (A0ACM8E5E8 1-384 N87S): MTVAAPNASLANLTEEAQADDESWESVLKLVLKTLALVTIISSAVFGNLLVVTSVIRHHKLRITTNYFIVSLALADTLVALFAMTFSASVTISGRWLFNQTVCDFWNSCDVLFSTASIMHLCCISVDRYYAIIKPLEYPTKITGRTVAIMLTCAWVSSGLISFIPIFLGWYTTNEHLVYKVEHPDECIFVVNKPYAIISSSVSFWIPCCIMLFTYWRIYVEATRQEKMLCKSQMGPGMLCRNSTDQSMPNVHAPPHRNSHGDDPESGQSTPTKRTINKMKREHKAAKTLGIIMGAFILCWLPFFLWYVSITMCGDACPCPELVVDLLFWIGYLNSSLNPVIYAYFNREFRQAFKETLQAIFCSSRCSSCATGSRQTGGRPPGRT
As to the kind of experiment: TGFα shedding assay, amitraz-resistant mutant N87^2.61S. Particulars: Table S4. As for the experimental part:
as §1, §3, §4

In test [5] the target is T2, is-octβ2R Y67^2.41S mutant (Ixodes scapularis, UniProt A0ACM8E5E8, Y67S).
T2 sequence (A0ACM8E5E8 1-384 Y67S): T1 sequence (A0ACM8E5E8 1-384 N87S) with Y67S, S87N
As to the kind of experiment: TGFα shedding assay, amitraz-resistant mutant Y67^2.41S. Particulars: Table S4. As for the experimental part: as §1, §3, §4

The target in test [6] is is-octβ2R S203^5.46A mutant (Ixodes scapularis, UniProt A0ACM8E5E8, S203A). Briefly: TGFα shedding assay, mutant S203^5.46A. As for the experimental part: as §1, §2
For test [7], the target named is T3, is-octβ2R I61^1.42F mutant (Ixodes scapularis, UniProt A0ACM8E5E8, I40F).
T3 sequence (A0ACM8E5E8 1-384 I40F): T1 sequence (A0ACM8E5E8 1-384 N87S) with I40F, S87N
As to the kind of experiment: TGFα shedding assay, amitraz-resistant mutant I61^1.42F. Particulars: Table S4. How it is done: as §1, §3, §4

The target in test [8] is is-octβ2R T115^3.37A mutant (Ixodes scapularis, UniProt A0ACM8E5E8, T115A). Briefly: TGFα shedding assay, mutant T115^3.37A. As for the experimental part: as §1, §2
In test [9] the target is is-octβ2R F328^7.39A mutant (Ixodes scapularis, UniProt A0ACM8E5E8, F328A). As to the kind of experiment: TGFα shedding assay, mutant F328^7.39A. As for the experimental part: as §1, §2
Where [10] appears, read: Table S6, read-out: logEC50 (converted).
[11] abbreviates: HEK293, 1 h, Table S2, wild type, HEK293 cells, mean ± SEM, n = 3.
[12] abbreviates: logEC50, Table S2, wild type, HEK293 cells, mean ± SEM, n = 3.

As usually defined, the Emax is the size of the effect at its maximum, as opposed to the concentration needed. As to `CN/C=N/c1ccc(C)cc1C` [DPMF, N-2,4-dimethylphenyl-N′-methylformamidine], the EC50 in test [1] (setting [10]) was 251 nM; in test [1] (read-out: EC50), 320 nM; in [2] (LogEC50, Table S4, WT) it was 7.94 nM; in [2] (setting [12]) it was 3.98 nM; in test [3], 251 nM; in test [4], 7.94 nM. Also, the EC50 is 6.31 nM in test [5]; 1.26 nM in test [6] (setting [10]); 1.3 nM in test [6] (read-out: EC50); 7.94 nM in test [7]; 5.01 nM in test [8] (setting [10]); 5 nM in test [8] (read-out: EC50). Also, the Emax worked out at 21 ± 1% in test [2] (1 h, Table S4, WT); 25 ± 0.7% in [2] (1 h, Table S6, WT); 24 ± 0.6% in [2] (setting [11]).
Regarding `NCC(O)c1ccc(O)cc1` (stereo not drawn) [Octopamine, octopamine], the Emax is 23 ± 0.8% in [2] (1 h, Table S4, WT); 27 ± 1.5% in test [2] (1 h, Table S6, WT); 27 ± 0.7% in [2] (setting [11]). The EC50 in test [2] (LogEC50, Table S4, WT) was 10 nM; in test [2] (setting [12]), 20 nM; in test [2] (logEC50, Table S6, WT) it was 25.1 nM; in test [4], 10 nM; in test [9] (setting [10]) it was 1000 nM; in [9] (stated as a range in text, read-out: EC50), approximately 1000 nM. The EC50 in test [5] is 12.6 nM; in test [7], 7.94 nM. Further, in test [2] (wild type, order octopamine > tyramine > noradrenaline > dopamine), the “potency (EC50) relative to the other TDAs” value was “highest potency”.
